Experimental data taken from ChEMBL document CHEMBL1201862, “PubChem BioAssay data set” (2004).
Activity calls are given as the source filed them.

Legend:
[1] = growth suppression of PTEN-null colon cells, dose response, cell-based, HCT116 PTEN knockout (AID 1047); type: functional;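 further: HCT116 colon tumor cells with PTEN knocked out; cells exposed to compound for 60 hours before readout; potency for loss of cell viability measured by luminescence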
[2] = growth suppression of beta-catenin-knockout colon cells, dose response, cell-based, HCT116, human colon tumor (AID 1045); type: functional;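 further: HCT116 colon tumor cells with beta catenin knocked out; cells exposed to compound for 60 hours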
[3] = molecular target: T1, Leucine aminopeptidase (Plasmodium falciparum 3D7, UniProt Q8IL11); assay: P. falciparum M17LAP inhibitors, primary screen, biochemical, fluorogenic H-Leu-NHMec substrate, 1536-well (AID 1619); type: functional
T1 sequence (Q8IL11 whole entry): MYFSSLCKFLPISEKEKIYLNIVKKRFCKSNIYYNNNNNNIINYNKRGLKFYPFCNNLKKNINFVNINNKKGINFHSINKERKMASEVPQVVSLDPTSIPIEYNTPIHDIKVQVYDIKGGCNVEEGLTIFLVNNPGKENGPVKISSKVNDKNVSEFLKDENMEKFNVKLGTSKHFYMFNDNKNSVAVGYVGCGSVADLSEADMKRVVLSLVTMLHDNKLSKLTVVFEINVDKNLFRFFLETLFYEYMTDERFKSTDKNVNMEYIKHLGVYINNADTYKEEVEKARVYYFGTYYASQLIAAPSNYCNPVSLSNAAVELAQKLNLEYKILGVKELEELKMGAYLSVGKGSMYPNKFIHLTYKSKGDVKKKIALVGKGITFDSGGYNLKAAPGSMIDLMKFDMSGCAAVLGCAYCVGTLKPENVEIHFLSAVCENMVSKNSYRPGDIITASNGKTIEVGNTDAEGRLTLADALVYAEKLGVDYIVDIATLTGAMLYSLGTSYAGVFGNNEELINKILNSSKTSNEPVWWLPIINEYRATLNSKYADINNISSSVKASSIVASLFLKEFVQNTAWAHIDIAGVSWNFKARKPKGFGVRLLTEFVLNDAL

[4] = cytotoxicity in HEK-293T cells, dose response, cytotoxicity control for BCR NF-kB inhibitor project, luminescence, B-cell screen hits (AID 489021); type: functional, cell-based;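 further: HEK-293T cells carrying an NF-kB luciferase reporter; cells exposed to compound for about 14 hours before viability readout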
[5] = cells
[6] = HEp-2 cell cytotoxicity, dose response, cytotoxicity control for RSV inhibitor project, HTS (AID 2410); type: functional; conditions: human respiratory syncytial virus
[7] = THP-1 cell cytotoxicity, dose response, cytotoxicity control for Vif-APOBEC3G degradation inhibitor project, THP-1 cells (AID 1117359); type: functional; conditions: Human immunodeficiency virus 1, THP-1
[8] = test system: Streptococcus sp. 'group A'; assay: growth inhibition of control SK(-) GAS strain, dose response, counter-screen for streptokinase expression inhibitor project, luminescence, kanamycin, BacTiterGlo, confirmation (AID 1900); type: functional, organism-based
[9] = test system: Streptococcus; assay: Group A Streptococcus viability loss, dose response, counter-screen for streptokinase expression inhibitor project, luminescence, BacTiterGlo (AID 1915); type: functional, organism-based;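 further: potency for reduction of bacterial viability or growth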
[10] = HEK293 cell cytotoxicity, dose response, cytotoxicity control, plate reader, cherry-picked samples (AID 743446); type: functional, cell-based
[11] = molecular target: T2, Streptokinase A (Streptococcus pyogenes serotype M1, UniProt P10520); assay: S. pyogenes streptokinase expression inhibitors, potency, dose response, plasminogen activation absorbance, OD405 (AID 1914); type: functional, Streptococcus pyogenes M1 GAS;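 further: secreted streptokinase activity via plasminogen activation per viability signal from cell pellet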
T2 sequence (P10520 whole entry): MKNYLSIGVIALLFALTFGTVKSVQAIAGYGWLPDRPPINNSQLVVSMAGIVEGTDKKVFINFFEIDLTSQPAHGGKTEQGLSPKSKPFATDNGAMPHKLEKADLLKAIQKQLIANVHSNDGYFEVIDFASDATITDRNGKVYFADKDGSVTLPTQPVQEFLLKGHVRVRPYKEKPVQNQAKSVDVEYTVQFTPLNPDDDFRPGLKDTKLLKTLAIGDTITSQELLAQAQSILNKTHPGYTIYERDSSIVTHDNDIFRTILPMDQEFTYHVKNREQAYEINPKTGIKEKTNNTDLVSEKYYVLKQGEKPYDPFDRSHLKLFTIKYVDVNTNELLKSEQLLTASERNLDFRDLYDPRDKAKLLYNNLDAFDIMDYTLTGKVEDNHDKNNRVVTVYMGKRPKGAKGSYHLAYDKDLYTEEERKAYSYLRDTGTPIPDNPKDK

[12] = inhibitors of intracellular T. cruzi replication, confirmation, NIH3T3 host cells, beta-gal luminescence (AID 2044); type: functional, cell-based;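 further: intracellular parasites grown in NIH/3T3 mouse fibroblasts as host cells; luminescent beta-galactosidase reporter signal from transgenic T. cruzi replicating inside host cells; inhibitors lower the luminescence signal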
[13] = A549 cell cytotoxicity, dose response, cytotoxicity control, plate reader, cherry-pick, antagonist series (AID 743412); type: functional, cell-based
[14] = HepG2 cell cytotoxicity, dose response, cytotoxicity control, plate reader, cherry-pick, antagonist series (AID 743416); type: functional, cell-based
[15] = cytotoxicity toward NIH3T3 fibroblasts, dose response, counter-screen, cell-based, ATP luminescence, mouse fibroblasts (AID 2010); type: functional;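 further: cells exposed to compound for about 90 hours before reading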
[16] = Luminescence Cell-Based Dose Response HTS to Identify Inhibitors of 5'UTR Stem-Loop Driven Prion Protein mRNA Translation in H4 Neuroglioblastoma Cells. [Related pubchem assays: 1827 (Project Summary), 1813 (Primary HTS)]; type: functional
[17] = molecular target: T3, Microphthalmia-associated transcription factor (Homo sapiens, UniProt O75030); assay: TRPM1 promoter luciferase signal decrease, dose response, MITF inhibitor project, cell-based, SK-MEL-5, cherry-picked, set 3 (AID 493073); type: functional
T3 sequence (O75030 whole entry): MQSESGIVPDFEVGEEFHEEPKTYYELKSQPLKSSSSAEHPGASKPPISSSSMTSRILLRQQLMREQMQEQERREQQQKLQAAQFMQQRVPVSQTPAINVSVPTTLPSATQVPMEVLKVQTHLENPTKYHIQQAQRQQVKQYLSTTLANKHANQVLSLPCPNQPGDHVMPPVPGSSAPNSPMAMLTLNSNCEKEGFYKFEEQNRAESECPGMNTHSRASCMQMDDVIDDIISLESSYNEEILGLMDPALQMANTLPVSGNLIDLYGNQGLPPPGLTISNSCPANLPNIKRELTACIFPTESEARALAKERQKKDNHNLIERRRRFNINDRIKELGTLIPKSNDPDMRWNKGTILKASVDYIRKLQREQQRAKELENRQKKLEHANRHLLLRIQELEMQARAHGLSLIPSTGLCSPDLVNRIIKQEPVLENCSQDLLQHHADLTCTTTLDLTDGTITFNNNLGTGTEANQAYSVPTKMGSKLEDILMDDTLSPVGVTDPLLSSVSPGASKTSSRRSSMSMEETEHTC

[18] = inhibitors of firefly luciferase expression or activity, dose response, H4 neuroglioma cells, luminescence (AID 1990); type: functional, cell-based
[19] = inhibitors of SNCA 5'UTR-driven reporter translation, confirmation, H4 neuroglioma cells, luminescence (AID 1988); type: functional, cell-based
[20] = molecular target: T4, Polyadenylate-binding protein 1 (Homo sapiens, UniProt P11940); assay: PABP1 MLLE–PAM2 interaction inhibitors, dose response, miRNA deadenylation inhibitor project, biochemical, fluorescence polarization, Cy5-PAM2 peptide, secondary (AID 602260); type: functional; conditions: read-out: IC50_Mean
T4 sequence (P11940 whole entry): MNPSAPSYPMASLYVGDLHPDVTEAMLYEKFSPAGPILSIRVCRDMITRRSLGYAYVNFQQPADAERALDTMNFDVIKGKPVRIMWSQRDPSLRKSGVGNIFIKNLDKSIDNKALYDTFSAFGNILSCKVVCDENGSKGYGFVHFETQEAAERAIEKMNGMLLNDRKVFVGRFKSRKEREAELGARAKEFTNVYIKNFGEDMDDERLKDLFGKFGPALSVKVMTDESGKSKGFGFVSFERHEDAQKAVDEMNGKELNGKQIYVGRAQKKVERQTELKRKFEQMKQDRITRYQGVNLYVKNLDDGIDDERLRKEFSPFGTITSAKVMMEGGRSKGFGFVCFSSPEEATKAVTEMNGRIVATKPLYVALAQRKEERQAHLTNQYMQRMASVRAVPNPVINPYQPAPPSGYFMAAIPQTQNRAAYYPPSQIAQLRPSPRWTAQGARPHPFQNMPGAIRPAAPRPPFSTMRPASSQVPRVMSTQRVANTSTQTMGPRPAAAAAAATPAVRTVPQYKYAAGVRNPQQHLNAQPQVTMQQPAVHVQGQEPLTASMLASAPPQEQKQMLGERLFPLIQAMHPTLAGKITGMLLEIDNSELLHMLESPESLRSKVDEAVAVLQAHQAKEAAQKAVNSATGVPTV

[21] = microbe, parasite or virus in culture; type: functional; conditions: Mycobacterium tuberculosis
[22] = molecular target: T4, Polyadenylate-binding protein 1; assay: PABP1 MLLE–PAM2 binding inhibitor potency, dose response, biochemical, fluorescence polarization, FITC-PAM2 peptide (AID 602259); type: functional; conditions: read-out: IC50_Mean
[23] = test system: BJ; assay: cytotoxicity toward BJ-TERT fibroblasts, dose response, cell-based, RAS-independent, luminescence (AID 1933); type: functional; conditions: Homo sapiens
[24] = test system: BJ; assay: cytotoxicity toward BJ-TERT-LT-ST fibroblasts, dose response, cell-based, RAS-independent, luminescence (AID 1935); type: functional; conditions: Homo sapiens;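 further: BJ fibroblasts immortalized with TERT plus LT and ST oncogenes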
[25] = test system: BJ; assay: cells; type: functional, cell-based; conditions: Homo sapiens
[26] = cytotoxicity toward DRD oncogenic fibroblasts, dose response, cell-based, non-viral oncogenic, luminescence (AID 1934); type: functional; conditions: Homo sapiens
[27] = molecular target: T5, Corticotropin-releasing factor receptor 2/Corticotropin-releasing factor-binding protein (Homo sapiens, UniProt P24387+Q13324); assay: Dose Response confirmation of uHTS hits for small molecule antagonists of the CRF-binding protein and CRF-R2 receptor complex.; type: functional; conditions: read-out: IC50_Mean
T5 sequence (Q13324 whole entry): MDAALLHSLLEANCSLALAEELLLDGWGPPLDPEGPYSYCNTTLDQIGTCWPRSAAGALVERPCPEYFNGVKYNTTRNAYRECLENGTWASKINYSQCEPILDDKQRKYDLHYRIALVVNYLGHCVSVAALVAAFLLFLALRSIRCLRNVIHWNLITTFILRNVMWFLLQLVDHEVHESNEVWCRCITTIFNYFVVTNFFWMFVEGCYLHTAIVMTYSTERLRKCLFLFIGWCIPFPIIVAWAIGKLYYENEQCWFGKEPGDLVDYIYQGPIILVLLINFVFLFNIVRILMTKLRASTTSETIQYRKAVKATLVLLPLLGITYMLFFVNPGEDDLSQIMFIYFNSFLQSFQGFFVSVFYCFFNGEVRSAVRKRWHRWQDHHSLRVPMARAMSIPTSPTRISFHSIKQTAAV
T5 sequence (P24387 whole entry): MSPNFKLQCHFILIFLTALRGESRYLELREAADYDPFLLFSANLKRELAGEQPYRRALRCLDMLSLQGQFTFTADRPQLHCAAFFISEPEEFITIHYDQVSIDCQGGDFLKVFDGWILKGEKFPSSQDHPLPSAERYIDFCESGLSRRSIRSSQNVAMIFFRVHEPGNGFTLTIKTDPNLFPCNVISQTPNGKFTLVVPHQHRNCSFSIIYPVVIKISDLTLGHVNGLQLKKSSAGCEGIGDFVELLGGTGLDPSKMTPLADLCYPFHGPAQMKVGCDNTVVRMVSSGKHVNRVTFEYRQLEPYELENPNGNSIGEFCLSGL

[28] = molecular target: T5, Corticotropin-releasing factor receptor 2/Corticotropin-releasing factor-binding protein; assay: activators of CRF receptor 2 with binding protein – uHTS hits, confirmation (AID 602473); type: functional; conditions: read-out: EC50_Mean

Cn1c(=O)n(CCc2ccccc2)c(=O)c2c1ncn2Cc1ccccc1
EC50 [1]: 47.7 µM (active)
EC50 [2]: 97.4 µM (active)

CC1=NNC(=O)C1CCC(=O)N/N=C/C=C/c1ccccc1 (centres undefined)
IC50 [3]: 51.4 µM (active)

Cc1nc2cc(-c3ccc(Cl)cc3)nn2c(C)c1CCC(=O)NCc1ccco1
IC50 [4]: > 80 µM (inactive)

Cc1cccc(N2CCN(C(=O)c3ccccc3NC(=O)C3CC=CCC3C(=O)O)CC2)c1 (centres undefined)
IC50 [3]: 19.1 µM (active)

O=C(O)c1cccc(COc2cccc3ccccc23)c1
IC50 [5]: 28.2 µM (active)
CC50 [6]: 31.1 µM (active)

COc1ccc2cnn(CCOc3cc(C)ccc3C(C)C)c(=O)c2c1OC
CC50 [7]: > 40 µM (active)

CC(C)OCCCNC(=O)c1c(N)n(/N=C/c2ccccn2)c2nc3ccccc3nc12
IC50 [4]: > 80 µM (inactive)

O=C(c1cccc(N2C(=O)C3C4C=CC(C4)C3C2=O)c1)N1CCN(c2ccccc2Cl)CC1 (centres undefined)
IC50 [5]: 32.6 µM (active)
CC50 [6]: > 50 µM (active)

CCC(CO)Oc1cc(NCc2ccccc2O)c2ncn(C(C)C)c2c1 (centres undefined)
IC50 [4]: > 80 µM (inactive)

Cc1ccccc1NC(=O)C1CCCN1S(=O)(=O)c1cccc2cccnc12 (centres undefined)
IC50 [5]: 19.5 µM (active)
CC50 [6]: > 50 µM (active)

CC(=O)c1cccc(NC(S)=NCCC2=CCCCC2)c1
EC50 [1]: 34 µM (active)
EC50 [2]: 22.6 µM (active)

O=C(c1ccc(Br)o1)N1CCN(c2ccc3nnc(-c4ccccc4)n3n2)CC1
IC50 [5]: 48.6 µM (active)

O=C(/C=C/c1ccccc1)Nc1sc2c(c1C(=O)O)CCC2
IC50 [5]: 26.1 µM (active)
CC50 [6]: 19.7 µM (active)

O=C(NC(Cc1ccccc1)c1nc2ccccc2[nH]1)c1cccc([N+](=O)[O-])c1 (centres undefined)
CC50 [7]: > 40 µM (active)

CCOc1cccc2sc(Nc3nc4ccc(NC(C)=O)cc4s3)nc12
EC50 [8]: 23.3 µM (active)
EC50 [9]: > 150 µM (not active)
AC50 [10]: 24.5 µM (active)
EC50 [11]: > 150 µM (not active)
EC50 [12]: 2.44 µM (active)
AC50 [13]: 9.66 µM (active)
AC50 [14]: 5.46 µM (active)
EC50 [15]: > 60 µM (not active)

O=C(CCCN1C(=O)S/C(=C\c2ccccc2)C1=O)NNC(=O)c1ccccc1O
EC50 [16]: 15.2 µM (active)
IC50 [4]: > 80 µM (inactive)
AC50 [17]: 33.9 µM (active)
EC50 [18]: < 100 nM (active)
EC50 [19]: 157 nM (active)

CCCCCC(=O)NNC(=S)NC(=O)c1ccc([N+](=O)[O-])cc1
IC50 [20]: > 66 µM (inactive)
IC50 [3]: 49.2 µM (active)
CC50 [21]: > 40 µM (active)
IC50 [22]: > 66 µM (inactive)

Oc1[nH]c2ccccc2c1N=Nc1nc(Nc2ccccc2)nc(N2CCOCC2)n1
IC50 [4]: 50.1 µM (inactive)

Clc1ccc(OCCCNCc2ccccc2)c(Br)c1
EC50 [1]: 23.1 µM (active)
EC50 [2]: 17.4 µM (active)

O=C(Nc1ccc(F)cc1F)NC1CCN(S(=O)(=O)c2ccc(F)cc2)CC1
CC50 [7]: > 40 µM (active)

CC(C)N(C(=O)COC(=O)c1ccccc1C(=O)c1ccc(Cl)c([N+](=O)[O-])c1)C(C)C
EC50 [23]: 15.1 µM (active)
EC50 [24]: > 75 µM (inconclusive)
AC50 [10]: > 52 µM (inactive)
EC50 [25]: > 150 µM (not active)
EC50 [26]: > 150 µM (not active)
AC50 [13]: 34.2 µM (active)
AC50 [14]: > 52 µM (inactive)

CSCCC(NS(=O)(=O)c1ccc2nc(O)c(O)nc2c1)C(=O)O (centres undefined)
IC50 [3]: 6.94 µM (active)

Cc1cc(/C=C(\C#N)C(=O)NCc2ccco2)c(C)n1-c1ccc(C(=O)O)cc1
IC50 [3]: 41.1 µM (active)

Cc1cc(=O)[nH]c(SCC(=O)Nc2ccc(Br)cc2)c1C#N
EC50 [11]: > 150 µM (not active)
IC50 [27]: 2.16 µM (active)
IC50 [3]: 1.48 µM (active)
EC50 [28]: 8.83 µM (active)
